The text below walks through data of publication PMC4233179 (Molecular cancer research : MCR, 2014).

SMILES strings stand for the structures.

For the assay, the target named is T1, NEDD4-1 (Homo sapiens, UniProt P46934).
T1 sequence (P46934 1-1319): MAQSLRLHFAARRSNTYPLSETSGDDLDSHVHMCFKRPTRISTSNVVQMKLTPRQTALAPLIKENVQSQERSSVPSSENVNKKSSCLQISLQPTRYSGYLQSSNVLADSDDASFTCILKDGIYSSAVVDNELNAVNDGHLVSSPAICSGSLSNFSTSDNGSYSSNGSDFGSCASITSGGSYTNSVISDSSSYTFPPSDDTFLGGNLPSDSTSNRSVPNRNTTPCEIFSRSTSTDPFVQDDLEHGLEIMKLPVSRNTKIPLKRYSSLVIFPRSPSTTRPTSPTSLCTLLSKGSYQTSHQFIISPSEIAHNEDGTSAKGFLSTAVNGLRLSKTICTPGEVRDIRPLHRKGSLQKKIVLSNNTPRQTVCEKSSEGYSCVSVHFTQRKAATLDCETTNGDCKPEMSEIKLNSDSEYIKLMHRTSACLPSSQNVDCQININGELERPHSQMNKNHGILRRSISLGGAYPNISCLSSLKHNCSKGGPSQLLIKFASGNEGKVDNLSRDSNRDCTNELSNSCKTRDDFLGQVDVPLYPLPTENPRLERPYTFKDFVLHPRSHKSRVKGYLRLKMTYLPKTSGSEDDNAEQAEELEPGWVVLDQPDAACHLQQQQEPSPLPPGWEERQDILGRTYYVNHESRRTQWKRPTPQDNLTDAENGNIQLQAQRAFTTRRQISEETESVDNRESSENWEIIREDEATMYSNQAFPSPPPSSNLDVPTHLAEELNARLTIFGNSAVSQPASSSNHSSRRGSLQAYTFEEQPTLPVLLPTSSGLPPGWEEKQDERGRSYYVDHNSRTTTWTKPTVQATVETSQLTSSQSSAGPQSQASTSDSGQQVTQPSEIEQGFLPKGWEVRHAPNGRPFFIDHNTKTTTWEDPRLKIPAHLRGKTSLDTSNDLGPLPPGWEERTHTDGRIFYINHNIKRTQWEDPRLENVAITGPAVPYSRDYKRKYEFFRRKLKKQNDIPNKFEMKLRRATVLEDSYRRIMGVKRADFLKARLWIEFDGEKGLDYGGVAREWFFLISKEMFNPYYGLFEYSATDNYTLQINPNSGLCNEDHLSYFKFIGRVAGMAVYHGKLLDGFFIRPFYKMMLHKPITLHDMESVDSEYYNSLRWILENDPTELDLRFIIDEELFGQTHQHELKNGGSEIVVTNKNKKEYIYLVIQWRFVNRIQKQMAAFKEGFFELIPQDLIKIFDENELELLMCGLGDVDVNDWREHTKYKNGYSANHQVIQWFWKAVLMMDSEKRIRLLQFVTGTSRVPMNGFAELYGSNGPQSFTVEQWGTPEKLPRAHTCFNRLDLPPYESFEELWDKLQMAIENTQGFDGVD
The assay is described as follows: isothermal titration calorimetry. In kind it is binding.

As for `OCc1c[nH]c2ccccc12` [I3C, indole-3-carbinol], the Kd was ~88.1 µM.
